From article PMC4203866, “Identification of plant-derived natural products as potential inhibitors of the Mycobacterium tuberculosis proteasome” (BMC Complementary and Alternative Medicine, 2014)
Where a SMILES comes first, the peptide text is derived from it. The star is where a group is joined. Cbz = O=C(OCc1ccccc1)*

biological target: T1, Mtb proteasome (Mycobacterium tuberculosis, UniProt P9WHT9); test: biochemical; conditions: not given
T1 construct: Proteasome activity of the supernatants was assessed; endogenous in cells; host or cells: Mycobacterium tuberculosis H37Ra (crude lysate supernatant)
T1 sequence (P9WHT9 58-291): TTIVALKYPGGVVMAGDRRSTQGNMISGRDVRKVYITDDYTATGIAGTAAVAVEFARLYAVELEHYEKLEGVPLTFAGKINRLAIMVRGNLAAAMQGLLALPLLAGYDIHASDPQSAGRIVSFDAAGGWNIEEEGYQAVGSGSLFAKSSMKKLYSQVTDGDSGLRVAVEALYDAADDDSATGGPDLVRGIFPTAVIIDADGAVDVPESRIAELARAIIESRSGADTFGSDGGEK
T1 sequence (P9WHU1 whole entry partner): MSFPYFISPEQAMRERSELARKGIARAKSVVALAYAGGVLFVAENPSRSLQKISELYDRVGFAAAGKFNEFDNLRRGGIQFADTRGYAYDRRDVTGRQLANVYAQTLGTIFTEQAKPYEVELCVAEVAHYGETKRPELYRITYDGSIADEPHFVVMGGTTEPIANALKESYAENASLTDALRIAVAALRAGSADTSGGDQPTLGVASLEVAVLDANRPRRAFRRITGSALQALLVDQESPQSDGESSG

Molecule	IC50	IA: inhibitory activity of Mtb proteasome
O=c1c(O)c(-c2ccc(O)cc2)oc2cc(O)cc(O)c12 [kaempferol]	107 µM	–
COc1c(O[C@@H]2O[C@H](C(=O)O)[C@@H](O)[C@H](O)[C@H]2O)cc(O)c2c(=O)cc(-c3ccccc3)oc12 [wogonoside]	–	59.01%
asiaticoside	–	0.00%
Cc1cc(O)c2c(c1)C(=O)c1cc(O)cc(O)c1C2=O [emodin]	81.1 µM	–
CC(C)C[C@@H](C=O)NC(=O)[C@H](CC(C)C)NC(=O)[C@H](CC(C)C)NC(=O)OCc1ccccc1 [MG132, reference compound] (Cbz-Leu-Leu-Leu-aldehyde)	28 µM	–
O=C(/C=C/c1ccc(O)cc1)c1ccc(O)cc1O [isoliquiritigenin]	63.9 µM	–
C=C1CC[C@@H]2[C@](C)(CO)[C@H](O)CC[C@@]2(C)[C@@H]1/C=C/C1=CCOC1=O [dehydroandrographolide]	–	32.67%
C=C(C)[C@@H]1CC[C@]2(CO)CC[C@]3(C)[C@H](CC[C@@H]4[C@@]5(C)CC[C@H](O)C(C)(C)[C@@H]5CC[C@]43C)[C@@H]12 [betulinol]	–	6.52%
COc1c(O)cc2oc3cc(O)c(CC=C(C)C)c(O)c3c(=O)c2c1CC=C(C)C [alpha mangostin]	–	64.16%
C/C=C(/C)C(=O)O[C@H]1[C@@H](OC(C)=O)c2c(ccc3ccc(=O)oc23)OC1(C)C [praeruptorin A]	–	0.00%
COc1ccc(-c2cc(=O)c3c(O)c(OC)c(O[C@@H]4O[C@H](CO[C@@H]5O[C@@H](C)[C@H](O)[C@@H](O)[C@H]5O)[C@@H](O)[C@H](O)[C@H]4O)cc3o2)cc1 [pectolinarin]	50 µM	–

same assay, conditions: 0.5 h, read-out: IA: inhibitory activity of Mtb proteasome

Molecule	inhibition at 200 µM
O=c1c(O)c(-c2ccc(O)cc2)oc2cc(O)cc(O)c12 [kaempferol]	> 65%
C=C1C(=O)O[C@@H]2/C=C(\C)CC/C=C(\C)CC[C@@H]12 [costunolide]	41.8%
C[C@@H]1O[C@@H](OC[C@H]2O[C@@H](Oc3c(-c4ccc(O)c(O)c4)oc4cc(O)cc(O)c4c3=O)[C@H](O)[C@@H](O)[C@@H]2O)[C@H](O)[C@H](O)[C@H]1O [rutin]	0%
Cc1cc(O)c2c(c1)C(=O)c1cc(O)cc(O)c1C2=O [emodin]	> 65%
O=C(/C=C/c1ccc(O)cc1)c1ccc(O)cc1O [isoliquiritigenin]	> 65%
COC(=O)C1=CO[C@@H](O[C@@H]2O[C@H](CO)[C@@H](O)[C@H](O)[C@H]2O)[C@@H]2C(CO)=CC[C@H]12 [geniposide]	0%
O=c1ccc2ccc(O)cc2o1 [umbelliferone]	0%
OC[C@H]1O[C@@H](OCCc2ccc(O)cc2)[C@H](O)[C@@H](O)[C@@H]1O [salidroside]	34%
OC[C@H]1O[C@@H](Oc2cc(O)cc(/C=C/c3ccc(O)cc3)c2)[C@H](O)[C@@H](O)[C@@H]1O [polydatin]	0%
COc1cc(/C=C/C(=O)CC(=O)/C=C/c2ccc(O)c(OC)c2)ccc1O [curcumin]	> 65%
CC1(C)[C@@H](O)CC[C@]2(C)[C@H]3C(=O)C=C4[C@@H]5C[C@@](C)(C(=O)O)CC[C@]5(C)CC[C@@]4(C)[C@]3(C)CC[C@@H]12 [glycyrrhetinic Acid]	0%
C[C@@H]1CC[C@@]2(OC1)O[C@H]1C[C@H]3[C@@H]4CC=C5C[C@@H](O)CC[C@]5(C)[C@H]4CC[C@]3(C)[C@H]1[C@@H]2C [diosgenin]	0%
COc1ccc(-c2cc(=O)c3c(O)cc(O)cc3o2)cc1O [diosmetin]	0%
COc1cc(C(=O)O)cc(OC)c1O [syringic acid]	0%
O=c1c(-c2ccc(O)cc2)coc2c([C@@H]3O[C@H](CO)[C@@H](O)[C@H](O)[C@H]3O)c(O)ccc12 [puerarin]	0%
COc1cc(C[C@H]2C(=O)OC[C@@H]2Cc2ccc(OC)c(OC)c2)ccc1O [arctigenin]	27.1%
O=C1Nc2ccccc2/C1=C1/Nc2ccccc2C1=O [indirubin]	46%

same assay, conditions: read-out: IA: inhibitory activity of Mtb proteasome

Molecule	inhibition at 100 µM
CC(C)C[C@@H](C=O)NC(=O)[C@H](CC(C)C)NC(=O)[C@H](CC(C)C)NC(=O)OCc1ccccc1 [MG132, reference compound] (Cbz-Leu-Leu-Leu-aldehyde)	79.7%
